Source: US5250194A, “N-dodecyl heterocyclic compounds useful as industrial microbicides and preservatives” (Buckman Laboratories International, Inc., priority 1992, dated 1993)
In brackets after ≈: the same amount, converted by molar mass. Like-named read-outs stand apart in the source and are kept apart here.

How the values were obtained:
[1] = test system: E. aerogenes; test: Pulp substrate method, minimum inhibitory concentration; type: cell-based
Source text: The minimum inhibitory concentrations are those in which a percentage kill of at least 80% is obtained.

[2] = test system: Aspergillus niger; test: Fungal growth inhibition, minimum inhibitory concentration; type: cell-based; conditions: pH 6.0, completely prevented growth, read-out: Minimum inhibitory concentration against fungi
Method: The microorganism growth inhibiting activity of N-dodecyl heterocyclic compounds on the fungus Aspergillus niger was evaluated.

[3] = test system: Chlorella pyrenoidosa; test: Algae growth inhibition in Difco Algae Broth; type: cell-based; conditions: Auxenochlorella pyrenoidosa, 672 h
Method: (§1) The growth inhibiting activity of the method of the invention against the three algae Chlorella pyrenoidosa, Chlorococcum hypnosporum and Phormidium inundatum was evaluated in Difco Algae Broth, the content of which was as follows:
(§2) Forty-gram portions of the algae medium were added to 250 mL Pyrex Erlenmeyer flasks fitted with loose metal caps and then sterilized. Each of the following substances wa then added to the flasks in the order listed:
(§3) 1. Sterile algae medium as required to bring the total weight of the contents of each flask to 50 grams, after allowing for all subsequent additions specified below.
(§4) 2. A solution of the N-dodecyl heterocyclic toxicant or of a control agent to be evaluated in each test, to give the concentration desired in parts per million by weight.
(§5) 3. Chlorella pyrenoidosa, Chlorococcum hypnosporum and Phormidium inundatum in amounts sufficient to give excellent growth in the controls after 14 days. This was achieved by adding 1 milliliter of a 14 day old culture having luxuriant growth. The Chlorella pyrenoidosa culture was obtained from American Type Culture Collection No. 7516; Chlorococcum hynosporum, from the University of Texas at Austin; and Phormidium inundatum, Wisconsin No. 1093, from the University of Washington.
(§6) As a control experiment, WSCP was used as a positive control agent. WSCP is a known toxicant which kills C. pyrenoidosa at 2 ppm, C. hypnosporum at 2 ppm and P. inundatum at 10 ppm. Control experiments were also carried out where no toxicants were also employed. In the algicidal tests the growth of algae in the nutrient medium is lush green and can be seen with the naked eye. Because the minimum inhibitory concentrations of the compounds in this example are those which result in complete inhibition evaluation of the test results is not subjective.
(§7) After the inoculum of the test algae was added, the flasks were incubated at a temperature of 28° ±2° C. under fluorescent illumination of 250 foot-candle intensity (8 hours light, 16 hours darkness) for a period adequate for growth in the controls (those portions of medium which contained no toxicant). Observations of growth were made at 7-day intervals. Minimum inhibitory concentrations are those that prevented complete growth after 28 days.

[4] = test system: Chlorococcum hypnosporum; test: Algae growth inhibition in Difco Algae Broth; type: cell-based; conditions: 672 h
Method: as §1, §2, §3, §4, §5, §6, §7

[5] = test system: Phormidium inundatum; test: Algae growth inhibition in Difco Algae Broth; type: cell-based; conditions: 672 h
Method: as §1, §2, §3, §4, §5, §6, §7

[6] = test system: P. aeruginosa; test: Basal salts method, minimum inhibitory concentration; type: cell-based; conditions: basal salts solution
Method: The preferred compounds of the present invention were tested by the pulp substrate method and basal salts method described in U.S. Pat. No. 2,881,070 at column 5, beginning at line 12 and extending to column 6, line 53. The disclosure of U.S. Pat. No. 2,881,070 is specifically incorporated by reference herein. […] The minimum inhibitory concentrations are those in which a percentage kill of at least 80% is obtained.

[7] = Firestone and Pisano; cited from earlier work
[8] = test system: cholesterol biosynthesis; conditions: rat liver; Baggeley et al.; cited from earlier work
[9] = test system: epoxidation of aldrin; conditions: rat liver; Wilkinson et al.; cited from earlier work
[10] = Barker and Hadgraft; cited from earlier work
[11] = C. pyrenoidosa, pH 7.0, 28 days, read-out: Minimum inhibitory concentration against algae
[12] = C. hypnosporum, pH 7.0, 28 days, read-out: Minimum inhibitory concentration against algae
[13] = P. inundatum, pH 7.0, 28 days, read-out: Minimum inhibitory concentration against algae
[14] = pH 7, read-out: Minimum inhibitory concentration against algae

Molecule CCCCCCCCCCCCN1CCCC1=O [Compound 5, N-Dodecyl-2-pyrrolidinone] has a Minimum inhibitory concentration ([1]; pH 6.0, at least 80% kill) of 1000, a Minimum inhibitory concentration ([1]; pH 8.0, at least 80% kill) of 1000 and an MIC [2] of 32 mg/L (≈ 126 µM). The MIC [3, 11] was 10 mg/L (≈ 39.5 µM), the MIC [4, 12] was 10 mg/L (≈ 39.5 µM) and the MIC [5, 13] was 10 mg/L (≈ 39.5 µM).

For CCCCCCCCCCCCN1CCCCC1 [Compound 9, N-Dodecylpiperidine], the Minimum inhibitory concentration ([1]; pH 6.0, at least 80% kill) was 1000, the Minimum inhibitory concentration ([1]; pH 8.0, at least 80% kill) was 1000 and the MIC [2] was 32 mg/L (≈ 126 µM). For the same molecule, the MIC [3, 14] was 1 mg/L (≈ 3.95 µM), the MIC [4, 14] was 1 mg/L (≈ 3.95 µM) and the MIC [5, 14] was 10 mg/L (≈ 39.5 µM).

With CCCCCCCCCCCCN1CC(CCl)OC1=O (centres unmarked) [Compound 4, N-dodecyl-5-chloromethyl-2-oxazolidinone] the Minimum inhibitory concentration ([1]; pH 6.0, at least 80% kill) was 1000, the Minimum inhibitory concentration ([1]; pH 8.0, at least 80% kill) was 1000 and the MIC [2] was > 512 mg/L. It also gave an MIC [3, 11] of 100 mg/L (≈ 329 µM), an MIC [4, 12] of 100 mg/L (≈ 329 µM) and an MIC [5, 13] of 100 mg/L (≈ 329 µM).

With CCCCCCCCCCCCn1ccnc1 [Compound 2, N-Dodecylimidazole] the Minimum inhibitory concentration ([1]; pH 6.0, at least 80% kill) was 1000, the Minimum inhibitory concentration ([1]; pH 8.0, at least 80% kill) was > 1000 and the Minimum inhibitory concentration ([6]; pH 6.0, at least 80% kill) was 4. The Minimum inhibitory concentration ([6]; pH 8.0, at least 80% kill) was 10, the MIC [2] was 32 mg/L (≈ 135 µM) and the MIC [3, 11] was 0.5 mg/L (≈ 2.12 µM). The MIC [4, 12] was 0.7 mg/L (≈ 2.96 µM), the MIC [5, 13] was 2 mg/L (≈ 8.46 µM) and the “lysosomotropic detergent, useful as anti-cancer compounds and spermicides” value [7] was “lysosomotropic detergents”. The “inhibitor of cholesterol biosynthesis” value [8] was “inhibitor of cholesterol biosynthesis in rat liver” and the “inhibitor of epoxidation of aldrin” value [9] was “inhibitor of epoxidation of aldrin of rat liver”.

In the case of CCCCCCCCCCCCN1CCCCCC1 [Compound 6, N-Dodecylhexamethyleneimine], the Minimum inhibitory concentration ([1]; pH 6.0, at least 80% kill) is reported as > 1000, the Minimum inhibitory concentration ([1]; pH 8.0, at least 80% kill) is reported as 1000 and the MIC [2] is reported as 256 mg/L (≈ 957 µM). The MIC [3, 14] was 1 mg/L (≈ 3.74 µM), the MIC [4, 14] was 1 mg/L (≈ 3.74 µM) and the MIC [5, 14] was 10 mg/L (≈ 37.4 µM).

With CCCCCCCCCCCCN1CCOCC1 [Compound 1, N-Dodecylmorpholine] the Minimum inhibitory concentration ([1]; pH 6.0, at least 80% kill) was 25, the Minimum inhibitory concentration ([1]; pH 8.0, at least 80% kill) was 25 and the Minimum inhibitory concentration ([6]; pH 6.0, at least 80% kill) was 8. The Minimum inhibitory concentration ([6]; pH 8.0, at least 80% kill) was 40, the MIC [2] was > 100 mg/L and the MIC [3, 11] was 1 mg/L (≈ 3.91 µM). For the same molecule, the MIC [4, 12] was 1 mg/L (≈ 3.91 µM), the “lysosomotropic detergent, useful as anti-cancer compounds and spermicides” value [7] was “lysosomotropic detergents” and the “help the transport of anionic drugs” value [10] was “help the transport of anionic drugs”.

Molecule CCCCCCCCCCCCN1CC(C)OC(C)C1 (centres unmarked) [Compound 3, N-dodecyl-2,6-dimethylmorpholine] has a Minimum inhibitory concentration ([1]; pH 6.0, at least 80% kill) of 1000, a Minimum inhibitory concentration ([1]; pH 8.0, at least 80% kill) of 1000 and an MIC [2] of 128 mg/L (≈ 451 µM). For the same molecule, the MIC [3, 11] was 10 mg/L (≈ 35.3 µM), the MIC [4, 12] was < 1 mg/L and the MIC [5, 13] was 1000 mg/L (≈ 3530 µM).

In the case of CCCCCCCCCCCCN1CCCCC1C (centres unmarked) [Compound 11, N-Dodecyl-2-methylpiperidine], the Minimum inhibitory concentration ([1]; pH 6.0, at least 80% kill) is reported as 100, the Minimum inhibitory concentration ([1]; pH 8.0, at least 80% kill) is reported as > 1000 and the MIC [2] is reported as 1000 mg/L (≈ 3740 µM). The MIC [3, 14] was < 1 mg/L, the MIC [4, 14] was < 1 mg/L and the MIC [5, 14] was 5 mg/L (≈ 18.7 µM).

In the case of CCCCCCCCCCCCN1CCCC(C)C1 (centres unmarked) [Compound 8, N-dodecyl-3-methylpiperidine], the Minimum inhibitory concentration ([1]; pH 6.0, at least 80% kill) is reported as 1000, the Minimum inhibitory concentration ([1]; pH 8.0, at least 80% kill) is reported as > 1000 and the MIC [2] is reported as 256 mg/L (≈ 957 µM). For the same molecule, the MIC [3, 11] was 10 mg/L (≈ 37.4 µM), the MIC [4, 12] was 1 mg/L (≈ 3.74 µM) and the MIC [5, 13] was 10 mg/L (≈ 37.4 µM).

With CCCCCCCCCCCCN1CCC(C)CC1 [Compound 10, N-Dodecyl-4-methylpiperidine] the Minimum inhibitory concentration ([1]; pH 6.0, at least 80% kill) was 100, the Minimum inhibitory concentration ([1]; pH 8.0, at least 80% kill) was > 1000 and the MIC [2] was 1000 mg/L (≈ 3740 µM). The MIC [3, 11] was < 1 mg/L, the MIC [4, 12] was < 1 mg/L and the MIC [5, 13] was < 1 mg/L.

For CCCCCCCCCCCCN1CCCC1 [Compound 7, N-Dodecylpyrrolidine], the Minimum inhibitory concentration ([1]; pH 6.0, at least 80% kill) was 1000, the Minimum inhibitory concentration ([1]; pH 8.0, at least 80% kill) was > 1000 and the MIC [2] was 128 mg/L (≈ 535 µM). It also gave an MIC [3, 14] of 1 mg/L (≈ 4.18 µM), an MIC [4, 14] of 1 mg/L (≈ 4.18 µM) and an MIC [5, 14] of 1 mg/L (≈ 4.18 µM).
